Here are results for nine compounds from US11111247B2, “Pyrazolopyrimidine compounds and uses thereof” (Incyte Corporation, priority 2018, dated 2021).

What is called IC50 is the concentration needed to halve the response being measured.

In one experiment the target is ALK2 (aa 147-end) (Homo sapiens (Human), UniProt Q04771). Nature of the experiment: ALK2 HTRF Assay. The class given is biochemical. (In general: TR-FRET usually uses a lanthanide donor and a delayed reading to cut background.)
The next experiment addresses FGFR1 (Homo sapiens, UniProt P11362). In words: pFGFR1 Functional Cell HTRF Assay (BAF3-TEL-FGFR1 cells). The class given is cell-based. The protocol: (§1) To measure phosphorylated Fibroblast Growth Factor Receptor 1 and 3 (FGF1 and FGFR3), in house stable cell lines BAF3-TEL-FGFR1 or BAF3-TEL-FGFR3 were maintained in RPMI with 10% FBS and 1 μg/ml puromycin (Gibco/Life Technologies). […] The plates were gently shaken (100 rpm) for 2 minutes at room temperature to mix well and incubated for 2 hours in a single layer at 37° C., 5% CO2. 4 μl/well of 1/25 dilution of lysis buffer #3 (Cis Bio) was added with standard Protease inhibitors and shaken at 200 rpm at room temperature for 20 minutes. 4 μl total of the Cis Bio Tb-pFGFR Ab (10 ng) and d2-FGFR3 (1 ng) together were added to the lysate and mixed well. Plates were sealed and incubated at room temperature overnight in the dark. […] IC50 determination was performed by fitting the curve of inhibitor percent inhibition versus the log of the inhibitor concentration using the GraphPad Prism 5.0 software.

In a further experiment the target is FGFR3 (Homo sapiens, UniProt P22607). In words: pFGFR3 Functional Cell HTRF Assay (BAF3-TEL-FGFR3 cells). The experiment is classed as cell-based. The settings on record: 2 hours. The procedure:
as §1

Another experiment deals with RT112 cells. In words: Luminescent Viability Assay (LVA, FGFR3). The class given is cell-based. To be noted: Homo sapiens, RT-112, 72 h, 3 days, CellTiter-Glo. The procedure, abridged:
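RT112 bladder cells grown in RPMI with 10% FBS were exposed to a compound concentration range for 3 days. Viability read by CellTiter-Glo luminescence; IC50 fitted from percent inhibition versus log concentration.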
Background: ATP-based viability assays read luminescence as a measure of living cells.

A further experiment has as its target FGFR2 (P) (Homo sapiens (Human), UniProt P21802). Nature of the experiment: FGFR Enzymatic Assay, FGFR2 phosphorylated. To be noted: read-out: FGFR2 (P) IC50; phosphorylated enzyme, ATP near or below Km.
A further experiment concerns the target FGFR3 (UP) (Homo sapiens (Human), UniProt P22607). In words: FGFR Enzymatic Assay, FGFR3 un-phosphorylated. The settings on record: read-out: FGFR3 (UP) IC50; un-phosphorylated enzyme, ATP near or below Km.
Another experiment addresses FGFR1 (UP) (Homo sapiens (Human), UniProt P11362). In words: FGFR Enzymatic Assay, FGFR1 un-phosphorylated.
Another experiment has as its target FGFR2 (UP) (Homo sapiens (Human), UniProt P21802). In words: FGFR Enzymatic Assay, FGFR2 un-phosphorylated. The settings on record: read-out: FGFR2 (UP) IC50; un-phosphorylated enzyme, ATP near or below Km.
A further experiment has as its target FGFR2 (Homo sapiens, UniProt P21802). In words: pFGFR2 Functional Cell HTRF Assay (KATOIII cells). The experiment is classed as cell-based. The settings on record: 1 hour, read-out: FGFR2 HTRF IC50. The protocol:
To measure phosphorylated Fibroblast Growth Factor Receptor 2 (FGFR2), KATOIII cells (Human Gastric Carcinoma) were purchased from ATCC and maintained in Iscove's with 20% FBS (Gibco/Life Technologies). For the pFGFR2 assay, KATOIII cells were plated overnight in 5% FBS and Iscove's medium at 5×10^4 cells/well into Corning 96-well flat-bottom tissue culture treated plates. The next morning, 50 μl of fresh media with 0.5% FBS was incubated in the presence or absence of a concentration range of test compounds also at 50 μl, for 1 hour at 37° C., 5% CO2. Cell were washed with PBS, and lysed with Cell Signaling Lysis Buffer with standard Protease inhibitors for 45 min at room temperature. 4 μl total of Cis Bio Anti […] together were added to the lysate and mixed well (following directions of the kit). 16 μl was then transferred to 384 well Greiner white plates and stored at 4° C. overnight in the dark. Plates were read on the Pherastar plate reader at 665 nm and 620 nm wavelengths. IC50 determination was performed by fitting the curve of inhibitor percent inhibition versus the log of the inhibitor concentration using the GraphPad Prism 5.0 software. […] NT=Not tested.

The test system of the next experiment is ALK2 mutant DIPG cell. The settings on record: ALK2 mutant DIPG cells; cited from earlier work.
[1] abbreviates: BAF3-TEL-FGFR1 cells, 2 hours, read-out: FGFR1 HTRF IC50.
Where [2] appears, read: read-out: FGFR1 (UP) IC50, un-phosphorylated enzyme, ATP near or below Km.
Where [3] appears, read: read-out: ALK2 100 μM IC50, 100 uM ATP.

Read-outs that look alike come from different tables or passages of the source.

Chain of FGFR2 (UP) (P21802 22-821): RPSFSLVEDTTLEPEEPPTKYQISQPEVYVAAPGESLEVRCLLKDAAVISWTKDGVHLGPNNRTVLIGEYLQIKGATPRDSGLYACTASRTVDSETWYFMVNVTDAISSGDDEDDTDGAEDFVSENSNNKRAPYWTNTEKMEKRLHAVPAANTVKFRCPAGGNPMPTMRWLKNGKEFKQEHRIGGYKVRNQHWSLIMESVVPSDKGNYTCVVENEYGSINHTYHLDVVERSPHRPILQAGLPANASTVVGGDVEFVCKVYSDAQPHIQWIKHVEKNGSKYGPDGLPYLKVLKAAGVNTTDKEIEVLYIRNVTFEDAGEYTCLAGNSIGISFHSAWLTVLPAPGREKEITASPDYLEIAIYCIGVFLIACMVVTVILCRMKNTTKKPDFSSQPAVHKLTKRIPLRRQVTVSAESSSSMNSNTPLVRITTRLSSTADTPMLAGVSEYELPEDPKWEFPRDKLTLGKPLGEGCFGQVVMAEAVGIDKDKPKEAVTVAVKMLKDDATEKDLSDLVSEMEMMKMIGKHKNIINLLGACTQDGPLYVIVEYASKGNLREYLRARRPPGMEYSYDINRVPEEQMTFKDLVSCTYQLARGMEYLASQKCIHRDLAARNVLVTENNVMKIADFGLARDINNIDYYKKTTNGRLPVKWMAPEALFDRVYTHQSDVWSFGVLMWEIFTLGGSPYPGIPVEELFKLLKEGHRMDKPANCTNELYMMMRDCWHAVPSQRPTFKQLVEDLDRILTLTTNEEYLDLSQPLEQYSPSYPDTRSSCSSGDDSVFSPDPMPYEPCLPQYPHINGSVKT
Chain of FGFR2 (P21802 22-821 limits assumed): as the sequence (P21802 22-821) above
Chain of FGFR2 (P) (P21802 22-821): as above
Chain of FGFR1 (P11362 22-822 limits assumed): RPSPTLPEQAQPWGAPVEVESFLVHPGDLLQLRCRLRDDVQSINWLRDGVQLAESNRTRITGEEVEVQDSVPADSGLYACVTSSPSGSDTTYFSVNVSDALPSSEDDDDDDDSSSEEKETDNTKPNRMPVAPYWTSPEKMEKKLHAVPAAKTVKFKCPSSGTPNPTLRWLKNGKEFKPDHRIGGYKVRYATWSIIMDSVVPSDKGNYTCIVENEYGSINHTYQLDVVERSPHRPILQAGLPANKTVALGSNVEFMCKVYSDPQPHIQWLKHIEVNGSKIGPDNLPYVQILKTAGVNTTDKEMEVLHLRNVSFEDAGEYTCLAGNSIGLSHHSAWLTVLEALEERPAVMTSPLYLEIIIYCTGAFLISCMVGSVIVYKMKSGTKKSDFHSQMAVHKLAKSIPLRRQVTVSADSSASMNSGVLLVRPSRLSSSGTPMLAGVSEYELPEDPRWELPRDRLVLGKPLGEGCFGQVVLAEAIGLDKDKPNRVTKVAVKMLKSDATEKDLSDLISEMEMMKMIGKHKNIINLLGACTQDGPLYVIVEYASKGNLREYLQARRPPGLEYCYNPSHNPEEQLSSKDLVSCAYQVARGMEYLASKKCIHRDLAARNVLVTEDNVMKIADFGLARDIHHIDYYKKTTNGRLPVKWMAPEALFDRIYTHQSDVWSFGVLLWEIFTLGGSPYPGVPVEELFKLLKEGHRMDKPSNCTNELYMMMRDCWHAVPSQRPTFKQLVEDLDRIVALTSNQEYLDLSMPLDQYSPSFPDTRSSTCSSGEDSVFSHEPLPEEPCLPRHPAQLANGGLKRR
Chain of FGFR1 (UP) (P11362 22-822): as the sequence (P11362 22-822 limits assumed) above
Chain of ALK2 (aa 147-end) (Q04771 147-509): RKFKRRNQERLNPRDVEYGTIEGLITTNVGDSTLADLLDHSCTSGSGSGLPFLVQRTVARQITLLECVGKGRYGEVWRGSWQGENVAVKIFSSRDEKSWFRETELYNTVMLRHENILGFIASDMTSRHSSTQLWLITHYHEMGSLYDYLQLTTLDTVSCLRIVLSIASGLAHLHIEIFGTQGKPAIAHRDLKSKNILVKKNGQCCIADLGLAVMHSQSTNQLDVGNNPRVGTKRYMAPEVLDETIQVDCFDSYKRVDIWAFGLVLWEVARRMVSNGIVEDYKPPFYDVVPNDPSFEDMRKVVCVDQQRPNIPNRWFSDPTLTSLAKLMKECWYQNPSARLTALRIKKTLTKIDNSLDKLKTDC
Chain of FGFR3 (UP) (P22607 23-806): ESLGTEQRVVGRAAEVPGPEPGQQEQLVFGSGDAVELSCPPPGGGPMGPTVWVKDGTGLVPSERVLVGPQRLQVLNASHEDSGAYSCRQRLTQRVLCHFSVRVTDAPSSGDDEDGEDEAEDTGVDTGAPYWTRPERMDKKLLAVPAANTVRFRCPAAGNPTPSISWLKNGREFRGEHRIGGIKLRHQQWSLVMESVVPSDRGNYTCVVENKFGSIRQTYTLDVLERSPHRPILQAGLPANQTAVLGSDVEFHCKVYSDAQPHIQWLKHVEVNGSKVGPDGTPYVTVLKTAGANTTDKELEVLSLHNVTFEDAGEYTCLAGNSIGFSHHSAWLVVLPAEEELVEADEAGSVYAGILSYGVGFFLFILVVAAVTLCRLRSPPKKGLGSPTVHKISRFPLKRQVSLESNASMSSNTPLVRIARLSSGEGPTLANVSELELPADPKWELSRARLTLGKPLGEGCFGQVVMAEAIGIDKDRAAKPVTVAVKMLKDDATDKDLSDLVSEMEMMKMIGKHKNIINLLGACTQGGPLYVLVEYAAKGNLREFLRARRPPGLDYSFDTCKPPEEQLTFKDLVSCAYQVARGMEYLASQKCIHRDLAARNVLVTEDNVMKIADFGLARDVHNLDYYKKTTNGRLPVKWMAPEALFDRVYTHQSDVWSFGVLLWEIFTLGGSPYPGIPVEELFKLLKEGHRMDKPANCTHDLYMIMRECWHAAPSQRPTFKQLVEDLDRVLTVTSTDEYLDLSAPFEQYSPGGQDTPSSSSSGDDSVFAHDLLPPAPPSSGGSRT
Chain of FGFR3 (P22607 23-806 limits assumed): as the sequence (P22607 23-806) above
Method for FGFR1 (UP): (§2) The inhibitor potency of the exemplified compounds was determined in an enzyme discontinuous assay that measures peptide phosphorylation using FRET measurements to detect product formation. Inhibitors were serially diluted in DMSO and a volume of 0.2 μL was transferred to the wells of a 384-well plate. For the isoforms of FGFR (−1, −2, −3 wild-type and mutant isoforms, −4) including phosphorylated (P) and un-phosphorylated (UP) proteins, a 5 μL/well volume of enzyme diluted in assay buffer (50 mM HEPES, 10 mM MgCl2, 1 mM EGTA, 0.01% Tween-20, 5 mM DTT, pH 7.5) was added to the plate and pre-incubated with inhibitor for 5 to 15 minutes at ambient temperature. Appropriate controls (enzyme blank and enzyme with no inhibitor) were included on the plate. The reaction was initiated by the addition of a 5 μL/well volume containing both biotinylated [sequence] […] The plate was allowed to equilibrate for −10 minutes at ambient temperature before scanning on a PheraStar plate reader (BMG Labtech) instrument.
(§3) Either GraphPad prism or XLfit was used to analyze the data. The IC50 values were derived by fitting the data to a four parameter logistic equation producing a sigmoidal dose-response curve with a variable Hill coefficient. Prism equation: Y=Bottom+(Top−Bottom)/(1+10^((LogIC50−X)*Hill slope)); XLfit equation: Y=(A+((B−A)/(1+((X/C)^D)))) where X is the logarithm of inhibitor concentration and Y is the response.
Method for FGFR2 (UP): as §2, §3

As for `Cn1cc(-c2n[nH]c3cnc(N4C5CCC4c4cn[nH]c4C5)nc23)cn1` (stereo not shown) [Example 45, 9-(3-(1-Methyl-1H-pyrazol-4-yl)-1H-pyrazolo[4,3-d]pyrimidin-5-yl)-1,4,5,6,7,8-hexahydro-4,7-epiminocyclohepta[c]pyrazole], the IC50 against ALK2 (aa 147-end) (ALK2 3 μM IC50, 3 uM ATP) is 500 to 2000 nM; against ALK2 (aa 147-end) (ALK2 100 μM IC50, 100 uM ATP), 500 to 2000 nM; on FGFR1 (setting [1]), 500 to 2000 nM; on FGFR3 it was 100 to 500 nM; in the experiment with RT112 cells, 100 to 500 nM; at FGFR2 (P) it was < 100 nM. In addition, the IC50 at FGFR3 (UP), at FGFR1 (UP) (setting [2]) and on FGFR2 (UP) was < 100 nM each time.

For `CN1CC2CCC(C1=O)N2c1ncc2[nH]nc(-c3cnn(C)c3)c2n1` (stereo not shown) [Example 49, 3-Methyl-8-(3-(1-methyl-1H-pyrazol-4-yl)-1H-pyrazolo[4,3-d]pyrimidin-5-yl)-3,8-diazabicyclo[3.2.1]octan-2-one], the IC50 was 500 to 2000 nM against ALK2 (aa 147-end) (ALK2 3 μM IC50, 3 uM ATP); > 2000 nM at ALK2 (aa 147-end) (setting [3]); 500 to 2000 nM on FGFR1 (setting [1]); < 100 nM against FGFR3; 100 to 500 nM with RT112 cells; < 100 nM on FGFR2 (P). The IC50 at FGFR3 (UP), on FGFR1 (UP) (setting [2]) and on FGFR2 (UP) was < 100 nM throughout.

As to `CCN1CC2CCC(C1=O)N2c1ncc2[nH]nc(-c3cnn(C)c3)c2n1` (stereo not shown) [Example 50, 3-Ethyl-8-(3-(1-methyl-1H-pyrazol-4-yl)-1H-pyrazolo[4,3-d]pyrimidin-5-yl)-3,8-diazabicyclo[3.2.1]octan-2-one], the IC50 against FGFR1 is 100 to 500 nM; against FGFR3, 100 to 500 nM; in the experiment with RT112 cells it was 100 to 500 nM; on FGFR2 (P), < 100 nM; at FGFR3 (UP), < 100 nM; on FGFR1 (UP), 100 to 500 nM.

`CC(C)N1CC2CCC(C1=O)N2c1ncc2[nH]nc(-c3cnn(C)c3)c2n1` (stereo not shown) [Example 52, 3-Isopropyl-8-(3-(1-methyl-1H-pyrazol-4-yl)-1H-pyrazolo[4,3-d]pyrimidin-5-yl)-3,8-diazabicyclo[3.2.1]octan-2-one]: the IC50 is 100 to 500 nM against FGFR1; 100 to 500 nM against FGFR3; 100 to 500 nM with RT112 cells; < 100 nM on FGFR2 (P); < 100 nM at FGFR3 (UP); 100 to 500 nM against FGFR1 (UP).

Turning to `CN1CC2CCC(C1=O)N2c1ncc2[nH]nc(-c3cnn(-c4ccncc4)c3)c2n1` (stereo not shown) [Example 68, 3-Methyl-8-(3-(1-(pyridin-4-yl)-1H-pyrazol-4-yl)-1H-pyrazolo[4,3-d]pyrimidin-5-yl)-3,8-diazabicyclo[3.2.1]octan-2-one], the IC50 at ALK2 (aa 147-end) (ALK2 3 μM IC50, 3 uM ATP) is 500 to 2000 nM; on ALK2 (aa 147-end) (setting [3]) it was > 2000 nM; on FGFR2, < 100 nM; against FGFR3, < 100 nM; in the experiment on RT112 cells, 100 to 500 nM; at FGFR2 (P), < 100 nM. The IC50 at FGFR3 (UP), at FGFR1 (UP) (setting [2]) and on FGFR2 (UP) was < 100 nM in each case.

Turning to `CN1CC2CCC(C1=O)N2c1ncc2[nH]nc(-c3cnn(-c4ccc(C#N)cc4)c3)c2n1` (stereo not shown) [Example 70, 4-(4-(5-(3-Methyl-2-oxo-3,8-diazabicyclo[3.2.1]octan-8-yl)-1H-pyrazolo[4,3-d]pyrimidin-3-yl)-1H-pyrazol-1-yl)benzonitrile], the IC50 is 500 to 2000 nM against ALK2 (aa 147-end) (ALK2 3 μM IC50, 3 uM ATP); > 2000 nM on ALK2 (aa 147-end) (setting [3]); < 100 nM on FGFR2; < 100 nM at FGFR3; < 100 nM with RT112 cells; < 100 nM at FGFR2 (P). Also, the IC50 at FGFR3 (UP), at FGFR1 (UP) (setting [2]) and on FGFR2 (UP) was < 100 nM throughout.

Take `CN1CC2CCC(C1=O)N2c1ncc2[nH]nc(-c3cnn(-c4ccc(N(C)C)nc4)c3)c2n1` (stereo not shown) [Example 72, 8-(3-(1-(6-(Dimethylamino)pyridin-3-yl)-1H-pyrazol-4-yl)-1H-pyrazolo[4,3-d]pyrimidin-5-yl)-3-methyl-3,8-diazabicyclo[3.2.1]octan-2-one]: the IC50 is 500 to 2000 nM at ALK2 (aa 147-end) (ALK2 3 μM IC50, 3 uM ATP); 500 to 2000 nM at ALK2 (aa 147-end) (ALK2 100 μM IC50, 100 uM ATP); < 100 nM on FGFR2; < 100 nM against FGFR3; 100 to 500 nM in the experiment with RT112 cells; < 100 nM on FGFR2 (P). Moreover, the IC50 at FGFR3 (UP), at FGFR1 (UP) (setting [2]) and on FGFR2 (UP) was < 100 nM throughout.

Turning to `Cc1cc(-n2cc(-c3n[nH]c4cnc(N5C6CCC5C(=O)N(C)C6)nc34)cn2)ccc1C#N` (stereo not shown) [Example 76, 2-Methyl-4-(4-(5-(3-methyl-2-oxo-3,8-diazabicyclo[3.2.1]octan-8-yl)-1H-pyrazolo[4,3-d]pyrimidin-3-yl)-1H-pyrazol-1-yl)benzonitrile], the IC50 against ALK2 (aa 147-end) (ALK2 3 μM IC50, 3 uM ATP) is 500 to 2000 nM; on ALK2 (aa 147-end) (ALK2 100 μM IC50, 100 uM ATP), 500 to 2000 nM; on FGFR2 it was < 100 nM; on FGFR3, < 100 nM; with RT112 cells, < 100 nM; on FGFR2 (P), < 100 nM. For the same compound, the IC50 at FGFR3 (UP), at FGFR1 (UP) (setting [2]) and at FGFR2 (UP) was < 100 nM in each case.

`c1ccc2c(-c3cnn4cc(-c5ccc(N6CCNCC6)cc5)cnc34)ccnc2c1` [LDN-19318917]: in the experiment with ALK2 mutant DIPG cell, the “inhibition of ALK2 mutant DIPG cell viability” value is “significant inhibition”.
